Patent US10946059B2, “Formulation containing an extract of Alpinia galanga, a process for the preparation thereof, and uses thereof” (priority 2017, dated 2021)

Key:
Format in all cases: in vivo, human
healthy young volunteers [1] = experiment: Attention network test (ANT 1.3.0), mental alertness, Example 2
From the text: The subjects were then screened. […] The subjects with body mass index (BMI) between 18.50 and 25.00 kg/m2 and a resting blood pressure≤140/90 mm Hg were considered eligible. To avoid subjects with psychotic disorders such as anxiety, depression, ADD or ADHD, subjects with Generalized Anxiety Disorder Screening (GAD-7) score≥7 & Patient Health Questionnaire-9 (PHQ-9) score≥14 were excluded from the study. Subjects with alertness score (Jin Fan's Attention Network Test, version 1.3.0) of 50±20 milliseconds at screening visit were considered eligible. Concomitant therapy was strictly prohibited in order to exclude any significant effect on the results. All the subjects were instructed thoroughly on the investigation procedures.
Subjects reported to the clinic during the morning hours and testing began at early time of day (8:00-9:00 a.m.) for each visit to avoid influence of daily challenges (related to mental and physical stress) on outcomes and the time of day was matched for all three visits to reduce variability in response due to diurnal pattern. […] Subjects were also instructed to obtain sufficient sleep during the night prior to testing which was confirmed using sleep diary. Upon arrival at clinic, subjects were asked to rest quietly for 15-20 minutes after which vital parameters were measured and a standardized meal of approximately 200 calories was provided to control variations from possible digestion confounds. Baseline data were collected 30 minutes post breakfast followed by administration of IP, wherein one dose of the product was administered to subject by trial coordinator at investigational site.
Post ingestion of IP, data were collected at 1, 3, and 5 hours. No other food or calorie-containing beverages were provided. Subjects were allowed to drink water as desired. Subjects were allowed to relax in an isolated room at a comfortable temperature and free to use the computer, listen to music or read magazines during the clinic stay period. To analyze the effect on IP on sleep architecture, a second dose was supplied in a labeled bottle to be taken before dinner in the night of the same day and subjects were asked to record all the details pertaining to sleep quality and duration in sleep diary. To ensure treatment compliance, product accountability was monitored by clinical research coordinator on the following visit.
The primary efficacy variable was mental alertness. Alertness is defined as achieving and maintaining a state of high sensitivity to incoming stimuli. The Attention network test (ANT) was implemented for this purpose as it provides a behavioral measure of the efficiency of the different components of attention networks separately within a single task. The downloaded JAVA version of ANT 1.3.0 (Fan et al., 2002, 2005) was used to conduct the trial. The subject was seated in a silent and secluded room. All external distractions were avoided and subjects were asked to give complete attention to the task at hand. Mental alertness in ANT was calculated in terms of difference score quantified in milliseconds and calculated by subtracting average double-cue RTs from the no-cue RTs. […]

healthy young volunteers [2] = experiment: Psychomotor Vigilance Task (PVT), sustained attention, Example 2; settings: mean ± SD
From the text: Subjects were derived through multiple sources including a healthy volunteer's database and a consumer group's survey agency. The subjects were then screened. […] The subjects with body mass index (BMI) between 18.50 and 25.00 kg/m2 and a resting blood pressure≤140/90 mm Hg were considered eligible. To avoid subjects with psychotic disorders such as anxiety, depression, ADD or ADHD, subjects with Generalized Anxiety Disorder Screening (GAD-7) score≥7 & Patient Health Questionnaire-9 (PHQ-9) score≥14 were excluded from the study. […] Concomitant therapy was strictly prohibited in order to exclude any significant effect on the results. All the subjects were instructed thoroughly on the investigation procedures. Subjects were randomized and allocated to interventional products in each visit, divided in four treatment arms based on randomization chart [SPSS version 10.0, IBM] and similar trend was followed for subsequent visits. […] All these treatments were administered to subjects in the form of capsules which were identical in appearance and packed in duly labeled HDPE bottles. The blinding codes were secured at the site in tamper-evident sealed envelopes with no access to the investigators. Thus, the double blind nature of the data were ensured and strictly followed. […] Composition details of all these IPs are: Subjects reported to the clinic during the morning hours and testing began at early time of day (8:00-9:00 a.m.) for each visit to avoid influence of daily challenges (related to mental and physical stress) on outcomes and the time of day was matched for all three visits to reduce variability in response due to diurnal pattern. […] Subjects were also instructed to obtain sufficient sleep during the night prior to testing which was confirmed using sleep diary. Upon arrival at clinic, subjects were asked to rest quietly for 15-20 minutes after which vital parameters were measured and a standardized meal of approximately 200 calories was provided to control variations from possible digestion confounds. […] Post ingestion of IP, data were collected at 1, 3, and 5 hours. No other food or calorie-containing beverages were provided. Subjects were allowed to drink water as desired. Subjects were allowed to relax in an isolated room at a comfortable temperature and free to use the computer, listen to music or read magazines during the clinic stay period. […] To ensure treatment compliance, product accountability was monitored by clinical research coordinator on the following visit. […] The mean MRT was calculated in milliseconds, which is the time a subject took to press the response button as soon as each stimulus appeared. […]

[3] = tested on: subjects (male and female) habituated to average caffeine consumption; experiment: Attention Network Test (CRSD-ANT), Example 1: mean response time, alertness, orientation, executive attention; settings: day 7 after IP, compared to placebo
Protocol: Only right-handed subjects were included in the study to avoid spatial bias. […] The subjects had to refrain from smoking 24 h before study onset and refrain from alcohol intake throughout the study. Subjects with a history or presence of clinically important cardiac, renal, hepatic, endocrine (including diabetes mellitus), pulmonary, biliary, gastrointestinal, pancreatic, or neurological disorders and uncontrolled hypertension were excluded from the study. For each subject, the study was terminated after data collection on the assessment day. […] The IPs included Cymbopogon flexuosus (LG), water-soluble and water-insoluble extracts of Alpinia galanga (AG1 and AG2 respectively), and water-soluble and water-insoluble extracts of Glycyrrhiza glabra (GG1 and GG2 respectively). All interventions were administered to subjects in the form of identical capsules that had been packed in duly labeled HDPE bottles. […] The subjects were allowed to drink water as desired and allowed to relax in an isolated room at a comfortable temperature and were free to use a computer, listen to music, or read magazines during the clinic stay period. […] To ensure treatment compliance, product accountability was monitored by a clinical research coordinator on the following visit. […] Effects of IPs on different aspects of the attention network, such as alertness, orientation, and executive control, were also assessed by ANT. […]

Q: What does the source list for `Cn1c(=O)c2c(ncn2C)n(C)c1=O` [Caffeine, caffeine]?
A: ANT-Alertness (Mental Alertness) score (healthy young volunteers [1]; 1H: value at 1 hour, PP population, mean ± SD): 57.0 ± 18.1 ms; increase in alertness score from baseline (healthy young volunteers [1]; at one hour): 8.97 ± 18.20 ms; decrease in alertness score from baseline (healthy young volunteers [1]; at three hours): 1.23 ± 18.60 ms; subjects that would exhibit higher alertness than the subjects in the placebo group (healthy young volunteers [1]; from Cohen's d): 47%; effect size in alertness score, Cohen's d (healthy young volunteers [1]; in comparison with placebo): 0.08; PVT-Mean Response Time (Sustained Attention) (healthy young volunteers [2]; 1H: value at 1 hour): 290.1 ± 51.6 ms; PVT-Mean Response Time (Sustained Attention) (healthy young volunteers [2]; 3H: value at 3 hours): 287.6 ± 43.1 ms; PVT-Mean Response Time (Sustained Attention) (healthy young volunteers [2]; 5H: value at 5 hours): 296.9 ± 51.5 ms; PVT-Mean Response Time (Sustained Attention) (healthy young volunteers [2]; BL: baseline value): 310.4 ± 103.3 ms; alertness [3]: decrease in alertness compared to the placebo group
